# Data: US20250340591A1, “COMPOSITION FOR PREVENTING OR TREATING INFLAMMATORY BOWEL DISEASE CONTAINING NOVEL COMPOUND” (ANYGEN CO., LTD., priority 2021, published 2025)
# System: AMPK
# Assay: phosphorylation of AMPK in HT-29 cells, Western blot
# Assay type: cell-based
# Description: It is known that tight junctions are mediated by a signaling mechanism due to phosphorylation of AMPK protein. Therefore, in order to confirm whether AMPK is involved in the increase in tight junctions by HKFY-34, the expression of p-AMPK in the cells was confirmed using HT-29 cells (FIGS. 79 and 80).
# In addition, when treated with HKFY-34 after pretreatment with an AMPK inhibitor (STO-609), it was confirmed that the expression level of p-AMPK, which was increased due to HKFY-34 treatment, was decreased (FIG. 80).
compound,measurement,setting,value
"CCCCCCCC(=O)NCCCC[C@H](NC(=O)[C@@H](N)Cc1cn(C(c2ccccc2)c2ccccc2)cn1)C(=O)N[C@H](Cc1ccc(C)cc1)C(=O)N[C@@H](Cc1ccc(O)cc1)C(=O)O [HKFY-34, ((R)-2-((S)-2-((S)-2-amino-3-(1-benzhydryl-1H-imidazol-4-yl)propanamido)-6-octanamidohexanamido)-3-(p-tolyl)propanoyl)-L-tyrosine]",expression of p-AMPK protein,"HT-29, different concentrations, vs vehicle, FIG. 79",increased by HKFY-34 in a dose-dependent manner
same,expression level of p-AMPK after pretreatment with AMPK inhibitor,"HT-29, pretreatment with STO-609 1 μM, vs HKFY-34 treatment, FIG. 80",decreased
